Laboratory results published in patent US6265578A, “Pyrimidine-2,4,6-triones” (Hoffmann-La Roche Inc., priority 2000, dated 2001).
Like-named read-outs stand apart in the source and are kept apart here.

Key:
Assay type in all cases: biochemical
[1] = molecular target: T1, human collagenase-3 (catalytic domain) (Homo sapiens, UniProt P45452); assay: IC50 for inhibition of the catalytic domain of human collagenase-3, fluorogenic peptide cleavage assay (Coll-3)
T1 construct: ubiquitin (cleaved yes); made in house; host or cells: bacterial expression system (analogous to matrilysin)
Description: Human matrilysin was obtained from a bacterial expression system as a ubiquitin fusion construct Welch, A. R., Holman, C. […] The mature form of matrilysin was purified following activation with 1 mM APMA (1 hour, 37° C.) and the active enzyme stored at -80° C. The catalytic domain of human collagenase-3 was obtained in a manner analogous to that for matrilysin. The final form of collagenase-3 used for these studies consisted of the residues Tyr104 -Asn274 from the full length collagenase sequence.
For matrilysin and the catalytic domain of collagenase-3, the buffer composition was pH 7.5, 50 mM Hepes, 200 mM NaCl, 5 mM CaCl2, 20 μM ZnCl2, 0.05% (wt/v) Brij-35. The final substrate concentration in all cases 10 μM. The approximate concentrations for the enzymes were: gelatinase-A, 0.8 nM; gelatinase-B, 0.5 nM; collagenase-3, 0.4 nM; matrilysin, 10 nM. To perform the peptide cleavage assay, the vessel containing buffer and compound of formula I were pre-equilibrated at 37° C., then the reaction initiated by successive addition of concentrated stocks of enzyme and substrate, and incubation at 37° C. was continued. At successive time points between 30 and 120 minutes, 50 μL aliquots of the assays were pulled and the enzymatic reaction stopped by addition to 150 μL of 30 mM EDTA (pH 7.4) in the well of a black, flat bottom microtiter plate.
% inh[I]=100(1-rate[I]/ratePC)
(§2) % inh[I]=percent inhibition at inhibitor concentration [I]
(§3) rate[I]=rate at inhibitor concentration [I]
ratePC=rate of positive control […]

[2] = molecular target: T2, gelatinase-A (human 72 kDa gelatinase) (Homo sapiens, UniProt P08253); assay: IC50 for inhibition of gelatinase-A (human 72 kDa gelatinase), fluorogenic peptide cleavage assay (GelA)
T2 construct: endogenous in cells; host or cells: fetal lung fibroblasts (purified from conditioned media)
T2 sequence (P08253 110-660): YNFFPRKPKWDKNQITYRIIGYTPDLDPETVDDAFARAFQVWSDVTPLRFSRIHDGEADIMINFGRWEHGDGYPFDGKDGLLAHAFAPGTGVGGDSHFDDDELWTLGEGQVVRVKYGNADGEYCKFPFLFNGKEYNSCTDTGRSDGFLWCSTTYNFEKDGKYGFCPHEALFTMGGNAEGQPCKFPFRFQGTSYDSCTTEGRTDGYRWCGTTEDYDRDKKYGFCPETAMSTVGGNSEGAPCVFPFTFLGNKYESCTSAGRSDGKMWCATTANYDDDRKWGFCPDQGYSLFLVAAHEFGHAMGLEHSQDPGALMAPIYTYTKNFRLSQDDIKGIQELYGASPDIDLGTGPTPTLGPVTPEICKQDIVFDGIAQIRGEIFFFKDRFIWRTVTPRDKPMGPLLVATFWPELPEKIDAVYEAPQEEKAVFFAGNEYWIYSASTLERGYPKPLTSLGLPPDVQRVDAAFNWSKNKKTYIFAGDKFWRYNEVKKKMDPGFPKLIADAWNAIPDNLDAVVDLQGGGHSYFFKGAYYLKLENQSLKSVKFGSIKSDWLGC
Description: (§1) Human 72 kDa gelatinase was purified from the conditioned media of fetal lung fibroblasts according to known methods. The enzyme was stored in the pro-form at -80° C. and activated prior to use by treatment with 1 mM aminophenyl mercuriacetate (APMA) for 1 hour at 37° C., then dialyzed against reaction buffer before use. Human neutrophil gelatinase (95 kDa gelatinase) was purified from conditioned media of NSO-cells according to known methods. This enzyme was likewise stored in the zymogen form at -80° C. It was activated by treatment with trypsin (5 μg/mL) for 1 hour at 37° C., followed by addition of bovine pancreatic trypsin inhibitor to 50 μg/mL. Human matrilysin was obtained from a bacterial expression system as a ubiquitin fusion construct Welch, A. R., Holman, C. M., Browner, M. F., Gehring, M. R., Kan, C.-C., & Van Wart, H. E. (1995) Arch. Biochem. Biophys. 324, 59-64. The mature form of matrilysin was purified following activation with 1 mM APMA (1 hour, 37° C.) and the active enzyme stored at -80° C. The catalytic domain of human collagenase-3 was obtained in a manner analogous to that for matrilysin. The final form of collagenase-3 used for these studies consisted of the residues Tyr104 -Asn274 from the full length collagenase sequence. The catalytic domain of human stromelysin-1 was produced via E. coli expression and purification according to known methods; the activated, catalytic domain was stored at -80° C.
The assay methods utilized the fluorogenic substrate: Dnp-Pro-Cha-Gly-Cys(Me)-His-Ala-Lys(NMA)-NH2. (Dnp=dinitro phenyl; Cha=cyclohexylalanine; Cys(Me)=S-methyl cysteine, Lys(NMA)=N^ε-methyl-anthranoyl-1-lysine). Stock solutions were prepared in DMSO. Stock solutions of compounds of formula I (inhibitor) were also prepared in DMSO.
For gelatinase-A and gelatinase-B, the buffer was pH 7.5, 50 mM TrisHCl, 200 mM NaCl, 5 mM CaCl2, 20 μM ZnCl2, 0.05% (wt/v) Brij-35. For matrilysin and the catalytic domain of collagenase-3, the buffer composition was pH 7.5, 50 mM Hepes, 200 mM NaCl, 5 mM CaCl2, 20 μM ZnCl2, 0.05% (wt/v) Brij-35. The final substrate concentration in all cases 10 μM. The approximate concentrations for the enzymes were: gelatinase-A, 0.8 nM; gelatinase-B, 0.5 nM; collagenase-3, 0.4 nM; matrilysin, 10 nM. […] The extent of substrate conversion was determined by reading the fluorescence of the stopped reactions (excitation wavelength: 355 nm; emission wavelength: […]).
A rate at each inhibitor concentration was obtained from a linear least squares fit to the fluorescence time course. The percent inhibition at inhibitor concentration [I] was calculated as: […]

[3] = molecular target: T3, gelatinase-B (human neutrophil gelatinase, 95 kDa gelatinase) (Homo sapiens, UniProt P14780); assay: IC50 for inhibition of gelatinase-B (human neutrophil gelatinase, 95 kDa), fluorogenic peptide cleavage assay (GelB)
T3 construct: made in house; host or cells: NSO-cells (purified from conditioned media)
T3 sequence (P14780 107-707 limits assumed): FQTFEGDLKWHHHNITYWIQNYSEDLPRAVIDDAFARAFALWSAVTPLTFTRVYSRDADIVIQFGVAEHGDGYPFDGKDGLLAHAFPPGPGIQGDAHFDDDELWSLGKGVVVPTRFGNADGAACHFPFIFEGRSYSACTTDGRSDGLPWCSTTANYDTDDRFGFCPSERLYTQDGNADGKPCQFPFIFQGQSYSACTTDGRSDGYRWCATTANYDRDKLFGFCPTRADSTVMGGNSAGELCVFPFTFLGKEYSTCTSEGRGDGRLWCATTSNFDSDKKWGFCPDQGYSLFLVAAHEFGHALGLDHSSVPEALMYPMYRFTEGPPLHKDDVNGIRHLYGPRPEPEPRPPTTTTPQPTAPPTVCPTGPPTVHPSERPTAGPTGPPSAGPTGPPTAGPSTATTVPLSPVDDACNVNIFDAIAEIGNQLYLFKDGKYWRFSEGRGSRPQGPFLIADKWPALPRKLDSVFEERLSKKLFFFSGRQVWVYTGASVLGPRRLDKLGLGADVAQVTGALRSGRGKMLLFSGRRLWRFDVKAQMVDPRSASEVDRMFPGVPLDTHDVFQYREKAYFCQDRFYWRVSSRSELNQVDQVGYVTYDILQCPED
Description: For gelatinase-A and gelatinase-B, the buffer was pH 7.5, 50 mM TrisHCl, 200 mM NaCl, 5 mM CaCl2, 20 μM ZnCl2, 0.05% (wt/v) Brij-35. […] The final substrate concentration in all cases 10 μM. The approximate concentrations for the enzymes were: gelatinase-A, 0.8 nM; gelatinase-B, 0.5 nM; collagenase-3, 0.4 nM; matrilysin, 10 nM. To perform the peptide cleavage assay, the vessel containing buffer and compound of formula I were pre-equilibrated at 37° C., then the reaction initiated by successive addition of concentrated stocks of enzyme and substrate, and incubation at 37° C. was continued. At successive time points between 30 and 120 minutes, 50 μL aliquots of the assays were pulled and the enzymatic reaction stopped by addition to 150 μL of 30 mM EDTA (pH 7.4) in the well of a black, flat bottom microtiter plate. The extent of substrate conversion was determined by reading the fluorescence of the stopped reactions (excitation wavelength: 355 nm; emission wavelength: 460 nM).
% inh[I]=100(1-rate[I]/ratePC)
as §2, §3
ratePC=rate of positive control […]

[4] = tested on: human stromelysin-1 (catalytic domain); assay: IC50 for inhibition of the catalytic domain of human stromelysin-1, fluorogenic substrate assay (Strom-1); settings: pH 6.5, ambient temperature, 60 min, 10 μM substrate, 10 nM enzyme
Description: as §1
The assay methods utilized the fluorogenic substrate: Dnp-Pro-Cha-Gly-Cys(Me)-His-Ala-Lys(NMA)-NH2. […]
Measurements for stromelysin-1: the catalytic domain of stromelysin-1 was tested using the same substrate but with a modified protocol. […] The reaction was started by addition of an aliquot of enzyme stock and the generated fluorescence was read directly after 60 minutes. […] The % inh[I] was calculated as: […]
where Fluor[I]=corrected fluorescence at 60 minutes observed for inhibitor concentration [I]
FluorPC=corrected fluorescence at 60 minutes observed for the positive control […]

[5] = catalytic domain, pH 7.5, 37° C., 10 μM substrate, 0.4 nM enzyme, 5% DMSO, read-out: IC50 Coll-3

Structure (SMILES): CC1(c2ccc(Oc3ccccc3)cc2)C(=O)NC(=O)NC1=O [A, 5-methyl-5-(4-phenoxyphenyl)pyrimidine-2,4,6-trione]
- IC50 [1, 5]: 65 nM
- IC50 [2]: 80 nM
- IC50 ([3]; pH 7.5, 37° C., 10 μM substrate, 0.5 nM enzyme, 5% DMSO, read-out: IC50 GelB): 52 nM
- IC50 [4]: 2000 nM

Structure (SMILES): CCCCCCC1(c2ccc(Oc3ccccc3)cc2)C(=O)NC(=O)NC1=O [B, 5-hexyl-5-(4-phenoxyphenyl)pyrimidine-2,4,6-trione]
- IC50 [1, 5]: 78 nM
- IC50 [2]: 67 nM
- IC50 [3]: 50 nM
- IC50 [4]: 2000 nM

Structure (SMILES): O=C1NC(=O)C(COCc2ccccc2)(c2ccc(Oc3ccccc3)cc2)C(=O)N1 [C, 5-benzyloxymethyl-5-(4-phenoxyphenyl)pyrimidine-2,4,6-trione]
- IC50 [1]: 47 nM
- IC50 [2]: 26 nM
- IC50 [3]: 23 nM
- IC50 ([4]; value in nM): 930 nM

Structure (SMILES): O=C1NC(=O)C(CCO)(c2ccc(Oc3ccccc3)cc2)C(=O)N1 [D, 5-(2-hydroxyethyl)-5-(4-phenoxyphenyl)pyrimidine-2,4,6-trione]
- IC50 ([2]; pH 7.5, 37° C., 10 μM substrate, 0.8 nM enzyme, 5% DMSO, read-out: IC50 GelA): 59 nM
